The test system of data set [1] is bone marrow monocytes of db/db mice. Nature of the data set: CD115+CD11b+ monocyte concentration in bone marrow by flow cytometry. It counts as in vivo, mouse. The note with it: NAC 150 mg/kg/day via drinking water for 8 weeks, FIG. 6C. The source says: 8-12 weeks old male C57BL/6J wild type (WT) and […] (db/db) mice were used in the studies. All mice were purchased from Jackson Laboratories and were maintained in mouse barrier facilities. Care and use of mice was in accordance with NIH guidelines and the Institutional Animal Care and Use Committee of the University of Massachusetts Medical School approved protocols. db/db and WT mice were fed standard chow diet (5.4 g/100 g diet, 0% cholesterol) and HFD mice were generated by feeding C57BL/6J mice a high fat diet (60% fat calories; Research Diet, New Brunswick, N.J.). N-acetylcysteine (NAC) was given for 8 weeks (150 mg/kg/day via drinking water.
For orientation: A flow cytometer gives signals particle by particle.

Data set [2] deals with HSCs from db/db mice. Nature of the data set: Intracellular ROS (DCF) in HSCs of db/db mice given NAC. The note with it: NAC 150 mg/kg/day via drinking water for 8 weeks, FIG. 6A. It is filed as in vivo, mouse. From the text:
8-12 weeks old male C57BL/6J wild type (WT) and […] (db/db) mice were used in the studies. All mice were purchased from Jackson Laboratories and were maintained in mouse barrier facilities. Care and use of mice was in accordance with NIH guidelines and the Institutional Animal Care and Use Committee of the University of Massachusetts Medical School approved protocols. db/db and WT mice were fed standard chow diet (5.4 g/100 g diet, 0% cholesterol) and HFD mice were generated by feeding C57BL/6J mice a high fat diet (60% fat calories; Research Diet, New Brunswick, N.J.). N-acetylcysteine (NAC) was given for 8 weeks (150 mg/kg/day via drinking water. Whole bone marrow cells were flushed out from femurs and tibialis. Bone marrow cells were stained with antibodies for the identification of HSCs (c-Kit^+Scal^+lineage^-CD90.1^lo/-). The antibodies used were: c-Kit (1:50, eBioscience 12-1171, clone: 2B8), Sca-1 (1:50, eBioscience 11-5981, clone: D7), CD90.1 (1:50, eBioscience 45-0900, clone:[…]) and a lineage cocktail antibody (1:50, BD Bioscience 558074). As for the gating strategy for flow cytometry, we first gated on single, viable cells and eliminated any debris, dead cells and clumps or doublets. Next, gates were drawn on the c-Kitpositive/Scal-positive/lineage-negative/CD90.1^low-negative population for HSC sorting. […]

For data set [3], the system named is Dnmt3a and DNMT3b. Nature of the data set: Dnmt3a and Dnmt3b expression in db/db HSCs (qRT-PCR, Western blot). The following applies: FIGS. 7E-F. For orientation: Quantitative PCR measures a nucleic acid by following its amplification.
Data set [4] has as its system Dnmt1. Nature of the data set: Dnmt1 expression in HSCs (qRT-PCR, Western blot). It counts as cell-based, mouse. As for the experimental part:
Quantification was performed using ImageJ software.
Total RNA was isolated using the mirVana miRNA isolation kit (Applied Biosystems). cDNA was synthesized using the QuantiMir RT Kit small RNA quantification system (SBI). qRT-PCR was performed as described previously. Mouse U6 was used as an endogenous control. The let-7d-3p mimic and inhibitor were purchased from Life Technologies (catalog numbers 4464066 and 4464084, respectively).

The subject of data set [5] is mouse Dnmt1 3′ UTR region. Nature of the data set: Dnmt1 3' UTR luciferase reporter assay in HEK293T cells. The following applies: 48 h post-transfection, FIG. 8C. It is filed as cell-based. As for the experimental part: (§1) HEK293T cells grown in 96-well plates were transfected with pmirGLO containing the Dnmt1 3′ UTR region that includes the let-7d-3p binding sites. The cells were co-transfected with let-7d-3p using Lipofectamine (Invitrogen). The Firefly and Renilla luciferase activities in the cell lysates were assayed with a Dual-Luciferase Reporter Assay System (Promega) at 48 h post-transfection. To generate the mutant variants, point mutations in the binding sites of let-7d-3p in the 3′-UTR region of Dnmt1 were introduced by PCR according to the site-directed mutagenesis protocol from Agilent. The two mutants that were generated are labeled “Dnmt1 M1” and “Dnmt1 M2”. The binding sequence of let-7d-3p in mouse Dnmt1 3′UTR is: […]

The test system of data set [6] is H3K9me2 and H3K9me3 at Klf4, PU.1 and Notch1 promoters. Nature of the data set: ChIP-PCR of H3K9 histone methylation at Notch1, PU.1 and Klf4. The note with it: db/db HSCs; FIG. 17B and FIG. 18. It is filed as cell-based, mouse. The protocol:
1×10^6 HSCs were sorted and cross-linked with 1% formaldehyde at room temperature for 10 min, and the reaction was stopped by adding Glycine to a final concentration of 0.125M and incubating at room temperature for 5 min. Cross-linked cells were lysed in lysis buffer and sonicated to 200-500 bp fragments (Bioruptor, Diagenode). The sonicated chromatin was centrifuged at 4° C. for 5 min. The cross-linked DNA was immunoprecipitated with H3K9me3, H3K9me2 or H3K9Ac antibodies (Millipore, USA) overnight at 4° C. with rotation, DNA-Antibody complexes were bound to ChIP beads, pulled down, washed and then eluted from the beads. Following reversal of cross-linkage, purified DNA was used for quantitative PCR using ChIP PCR primers purchased from IDT (MA, USA). Immunoprecipitation efficiency was calculated by normalizing sample CT values against control IgG values and calculating ratios of sample CT values relative to input values.

Data set [7] has as its system Dnmt1 M1 and Dnmt1 M2 (mutated let-7d-3p binding sites in Dnmt1 3′ UTR). Nature of the data set: Mutant Dnmt1 3' UTR luciferase reporter assay in HEK293T cells. It counts as cell-based, mouse. The note with it: FIG. 8C. The protocol: as §1
Background: A reporter such as luciferase makes a cellular process visible.

Data set [8] has as its system Notch1, PU.1 and Klf4 genes. Nature of the data set: DNA methylation of Notch1, PU.1 and Klf4 by pyrosequencing. The following applies: db/db HSCs; FIG. 14A, FIG. 15, FIG. 16. It counts as cell-based, mouse. The protocol: Genomic DNA was isolated by traditional phenol-chloroform extraction and isopropanol precipitation. DNA concentration was measured using a Nano Drop spectrophotometer. Around 500 ng genomic DNA were bisulfite converted by EZ DNA methylation-Gold kit following the manufacturer's instructions (Zymo Research). PCR amplification was performed using 2×HiFi Hotstart Uracil+ready mix PCR (Kapa Biosystems). PCR and pyrosequencing primer sets with one biotin-labeled primer were used to amplify the bisulfite converted DNA. Primers were designed using PyroMark Assay Design software version 2.0.1.15 (Qiagen). The size of the amplicons was 200 bp or less. Briefly, 5 μl master mix, […] of each primer, 20 ng genomic DNA and ultra-pure water to a final volume of 10 μl were mixed for each reaction and run at thermal cycling conditions: 95° C. for 3 min and then 50 cycles: 20 sec at 98° C.; 15 sec at the optimized primer-specific annealing temperature; 15 sec at 72° C. and a final extension for 1 min at 72° C. […] PyroGold reagents were used for the pyrosequencing reaction and the signal was analyzed using the PSQ 96MA system (Biotage, Uppsala, Sweden). Target CGs were evaluated by instrument software (PSQ96MA 2.1), which converts the pyrograms to numerical values for peak heights and calculates the methylation at each base as a C/T ratio.

For the compound `CC(=O)N[C@@H](CS)C(=O)O` [N-acetylcysteine], in data set [1], the “monocyte concentration in bone marrow” value is on record as “restored”. For the same compound, in data set [2], the “oxidant stress in HSCs (DCF positive cells)” value was “reversed”. Moreover, the “mRNA or protein levels of Dnmt3a and DNMT3b” value in data set [3] is reported as “did not change”. For the same compound, the “expression of DNMT1 in db/db HSCs” value in data set [4] (db/db HSCs, compared with WT HSCs, FIGS. 7E-F) is on record as “restored”.

Turning to “let-7d-3p mimic: let-7d-3p mimic purchased from Life Technologies (catalog number 4464066); microRNA that binds the Dnmt1 3′ UTR (guide CUAUACGACCUGCUGCCUUUCU; chemistry not given here)”, the “luciferase activity, intact 3′ UTR construct” value in data set [5] was “significantly repressed”. For the same compound, the “histone methylation levels (H3K9me2, H3K9me3)” value in data set [6] is given as “decreased”. Further, the “luciferase activity, let-7d-3p binding sites in Dnmt1 3′ UTR mutated” value in data set [7] was “didn't affect”. In addition, the “Dnmt1 expression in db/db HSCs” value in data set [4] (db/db HSCs transfected, FIGS. 8F-G) is recorded as “decreased”. The “methylation of Notch1, PU.1, Klf4” value in data set [8] is “decreased”.

The values above are taken from patent US11814623B2, “Methods of treating a wound using epigenetic regulation” (University of Massachusetts, priority 2018, dated 2023).
